Measurements: patent US6706663B2, “Herbicidal 3-heterocyclic substituted benzisothiazole and benzisoxazole compounds” (Wyeth, priority 2000, dated 2004)

Legend:
[1] = test system: IPOHE (Ipomoea hederacea); experiment: Preemergence herbicidal evaluation; type: in vivo, (L.) Jacq.; conditions: rated 4-5 weeks after treatment
[2] = test system: GLXMAW (Soybean, Williams); experiment: Postemergence herbicidal evaluation; type: in vivo, Glycine max, (L.) Merr. cv Williams; conditions: postemergence
Outline: (§1)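 Visual 0–9 injury scores versus control plants, covering stand, vigour, malformation, size, chlorosis and general appearance, taken four to five weeks post-spray and averaged over replicate tests. Plants were sprayed at roughly two weeks old and held on greenhouse benches.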

SETVI (Setaria viridis) [3] = experiment: Postemergence herbicidal evaluation; type: in vivo, (L.) Beau; conditions: postemergence
Outline: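 Ratings use a 0-9 visual scale covering stand, vigor, malformation, size, chlorosis and appearance versus a control, scored 4-5 weeks post-spray. Roughly two-week-old seedlings received about 0.0040-1.000 kg/ha active, applied in 50/50 acetone/water with 0.5% TWEEN 20. Multiple tests per compound were averaged.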

SETVI (Setaria viridis) [4] = experiment: Preemergence herbicidal evaluation; type: in vivo, (L.) Beau; conditions: rated 4-5 weeks after treatment
Outline: (§2)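 Visual 0-9 rating versus untreated control, taken four to five weeks post-treatment, scoring stand, vigor, malformation, size, chlorosis and overall appearance. Compound applied as aqueous acetone spray to freshly seeded soil cups, then kept under standard greenhouse care.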

[5] = test system: ECHCG (Echinochloa crus-galli); experiment: Preemergence herbicidal evaluation; type: in vivo, (L.) Beau; conditions: rated 4-5 weeks after treatment
Outline: as §2

ZEAMX (Corn, Field) = experiment: Preemergence herbicidal evaluation; type: in vivo, Zea mays, L.; conditions: rated 4-5 weeks after treatment
GALAP (Galium aparine) [6] = experiment: Postemergence herbicidal evaluation; type: in vivo; conditions: postemergence
Outline: as §1

CYPIR (Cyperus iria) = experiment: Flooded paddy, preemergence weed control; type: in vivo; conditions: rated 3-4 weeks after treatment, 0-9 rating scale
Outline: (§3)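 Ratings of 0-9 reflect visual comparison with a control for stand, vigor, deformity, size, chlorosis and overall look. Propagules were placed in shallow silt loam (top 0.5 cm) under a continuous 1.5–3 cm flood and grown in the greenhouse.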

[7] = test system: GLXMAW (Soybean, Williams); experiment: Preemergence herbicidal evaluation; type: in vivo, Glycine max, (L.) Merr. cv Williams; conditions: rated 4-5 weeks after treatment
[8] = test system: MOOVA (Monochoria vaginalis); experiment: Flooded paddy, preemergence weed control; type: in vivo, Presl.; conditions: rated 3-4 weeks after treatment, 0-9 rating scale
Outline: as §3

GALAP (Galium aparine) [9] = experiment: Preemergence herbicidal evaluation; type: in vivo; conditions: rated 4-5 weeks after treatment
Outline: as §2

Row | Structure (SMILES) | Preemergence herbicidal rating IPOHE ([1]; Rate 0.0620 kg/ha) | Preemergence herbicidal rating IPOHE ([1]; Rate 0.1250 kg/ha) | Preemergence herbicidal rating IPOHE ([1]; Rate 0.2500 kg/ha) | GLXMAW herbicidal rating ([2]; rate 0.0320 kg/ha) | GLXMAW herbicidal rating ([2]; rate 0.0620 kg/ha) | SETVI herbicidal rating (SETVI (Setaria viridis) [3]; rate 0.0320 kg/ha) | SETVI herbicidal rating (SETVI (Setaria viridis) [3]; rate 0.0620 kg/ha) | Preemergence herbicidal rating SETVI (SETVI (Setaria viridis) [4]; Rate 0.0620 kg/ha) | Preemergence herbicidal rating SETVI (SETVI (Setaria viridis) [4]; Rate 0.1250 kg/ha) | Preemergence herbicidal rating SETVI (SETVI (Setaria viridis) [4]; Rate 0.2500 kg/ha) | Preemergence herbicidal rating ECHCG ([5]; Rate 0.0620 kg/ha) | Preemergence herbicidal rating ECHCG ([5]; Rate 0.1250 kg/ha) | Preemergence herbicidal rating ECHCG ([5]; Rate 0.2500 kg/ha) | Preemergence herbicidal rating ZEAMX (ZEAMX (Corn, Field); Rate 0.0620 kg/ha) | Preemergence herbicidal rating ZEAMX (ZEAMX (Corn, Field); Rate 0.1250 kg/ha) | Preemergence herbicidal rating ZEAMX (ZEAMX (Corn, Field); Rate 0.2500 kg/ha) | GALAP herbicidal rating (GALAP (Galium aparine) [6]; rate 0.0320 kg/ha) | GALAP herbicidal rating (GALAP (Galium aparine) [6]; rate 0.0620 kg/ha) | herbicidal rating, CYPIR (CYPIR (Cyperus iria); rate 0.0080 kg/ha) | herbicidal rating, CYPIR (CYPIR (Cyperus iria); rate 0.0320 kg/ha) | further results
1 | Cn1c(C(F)(F)F)cc(=O)n(-c2ccc3snc(C4OCC(c5ccccc5)O4)c3c2)c1=O (stereo not drawn) [Compound 78, 1-methyl-3-[3-(4-phenyl-1,3-dioxolan-2-yl)-1,2-benzisothiazol-5-yl]-6-(trifluoromethyl)uracil] | 2.0 | 5.0 | 6.0 | 5.0 | 5.5 | 7.0 | 9.0 | 9.0 | 9.0 | 9.0 | 8.5 | 9.0 | 8.0 | 3.0 | 3.5 | 6.0 | 4.0 | 7.0 | 0.0 | 9.0 | herbicidal rating, CYPIR (CYPIR (Cyperus iria); rate 0.1250 kg/ha): 9.0; Preemergence herbicidal rating GLXMAW ([7]; Rate 0.0620 kg/ha): 2.5; Preemergence herbicidal rating GLXMAW ([7]; Rate 0.1250 kg/ha): 6.0; Preemergence herbicidal rating GLXMAW ([7]; Rate 0.2500 kg/ha): 5.0; herbicidal rating, MOOVA ([8]; rate 0.0080 kg/ha): 7.7; herbicidal rating, MOOVA ([8]; rate 0.0320 kg/ha): 9.0; herbicidal rating, MOOVA ([8]; rate 0.1250 kg/ha): 9.0; Preemergence herbicidal rating GALAP (GALAP (Galium aparine) [9]; Rate 0.0620 kg/ha): 7.0; Preemergence herbicidal rating GALAP (GALAP (Galium aparine) [9]; Rate 0.1250 kg/ha): 7.0; Preemergence herbicidal rating GALAP (GALAP (Galium aparine) [9]; Rate 0.2500 kg/ha): 7.0
2 | Cn1c(C(F)(F)F)cc(=O)n(-c2ccc3snc(-c4sccc4CBr)c3c2)c1=O [Compound 80, 3-[3-[3-(bromomethyl)-2-thienyl]-1,2-benzisothiazol-5-yl]-1-methyl-6-(trifluoromethyl)uracil] | 0.5 | 2.0 | 4.0 | 5.0 | 7.0 | 2.0 | 3.0 | 1.5 | 4.5 | 7.5 | 0.5 | 2.0 | 6.5 | 0.5 | 1.5 | 2.5 | 3.0 | 4.0 | 0.0 | 4.5 | herbicidal rating, CYPIR (CYPIR (Cyperus iria); rate 0.1250 kg/ha): 9.0; Preemergence herbicidal rating GLXMAW ([7]; Rate 0.0620 kg/ha): 0.5; Preemergence herbicidal rating GLXMAW ([7]; Rate 0.1250 kg/ha): 0.5; Preemergence herbicidal rating GLXMAW ([7]; Rate 0.2500 kg/ha): 6.0; herbicidal rating, MOOVA ([8]; rate 0.0080 kg/ha): 0.0; herbicidal rating, MOOVA ([8]; rate 0.0320 kg/ha): 9.0; herbicidal rating, MOOVA ([8]; rate 0.1250 kg/ha): 9.0; Preemergence herbicidal rating GALAP (GALAP (Galium aparine) [9]; Rate 0.0620 kg/ha): 4.0; Preemergence herbicidal rating GALAP (GALAP (Galium aparine) [9]; Rate 0.1250 kg/ha): 5.0; Preemergence herbicidal rating GALAP (GALAP (Galium aparine) [9]; Rate 0.2500 kg/ha): 7.0
